According to US20220339176A1, “Methods of Treatments to Prolong Gestation and Complications of Menstruation or Gestation” (priority 2019, published 2022):
Entries after “also recorded” stand apart in the source; their conditions may differ. Structures can show the parent of a compound that is named as a salt.

How the values were obtained:
[1] = test system: uterine muscle strips from pregnant WT mice; test: myography of uterine muscle strips, spontaneous contraction; design: species or system mouse
Procedure: (§1) Uterine muscle strips were extracted from pregnant mice and were assessed for contractibility via myography. Timed-pregnant wild-type C57/B6 mice were euthanized before making a vertical midline abdominal incision and removing each of the two uterine horns. Uterine horns were subsequently cut into 3-mm×7-mm segments and placed in a modified Krebs buffer (118 mM NaCl, […], 1.2 mM MgSO4, 1.2 mM KH2PO4, 2.5 mM CaCl2), 25 mM NaHCO3, and 11 mM glucose, pH 7.4). Muscle segments were vertically suspended on custom-made stainless steel hooks inside an organ bath filled with modified Krebs buffer, maintained at 37° C., and aerated with gas containing 95% O2 and 5% CO2. The strips were allowed to equilibrate at 1.5 g of tension for 45 min.
Provided in FIG. 5A are results of a myography experiment measuring spontaneous contraction. Myography of uterine muscle strips from pregnant WT mice at D18 was performed while incubating the strips with oxytocin (OXY), Vehicle, 0.25 μM μM of DHEA-S, 1 μM of THDOC, 1 μM of estriol-16-glucuronide, or 1 μM of androstane-3,17-diol. The area under the curve was calculated for the final 180 s of each 9-min contraction tracing using GraphPad Prism (GraphPad Prism for Macintosh version 5.0; GraphPad Software). The area under the curve for each response was then normalized to the area under the curve of the baseline.
Provided in FIG. 5E are myography tracings recorded with various compound applications: 10 μM progesterone, 1 μM Androstane-3,17-diol, 0.5 μM Androstane-3,17-diol+5 μM progesterone, and 0.33 μM Androstane-3,17-diol+0.33 μM THDOC+3.3 μM progesterone. Left of the arrow is baseline contraction and to the right of the arrow indicates when the compounds were applied. […] Note that there was no obvious effect when treating the muscle with 1 μM progesterone (data not shown).

[2] = test system: uterine muscle strips from pregnant WT mice; test: myography of uterine muscle strips, oxytocin dose-response; design: species or system mouse; details: D18 strips
Procedure: as §1
For the oxytocin dose-response experiments, the strips were then stimulated with oxytocin at concentrations ranging from 1 to 1000 nM, and the pattern of contraction in response to each dose was recorded for 9 min. The muscle strips were washed with Krebs solution twice and allowed to equilibrate for 3 min before the next stimulation. In separate experiments, strips were treated with the compounds before assessing the dose response to oxytocin. Contraction tracings were recorded using PowerLab and LabChart (ADInstruments).
Provided in FIGS. 5B and 5C are results of a myography experiment measuring spontaneous contractions induced by oxytocin. Myography of uterine muscle strips from pregnant WT mice at D18 was performed while incubating the strips with increasing doses of oxytocin in the presence of 1 μM Androstane-3,17-diol (black squares) or vehicle (black circles), n=4 to 7. The results are provided as old increase in area under the curve AUC (FIG. 5B), and amplitude (FIG. 5C) from baseline spontaneous contractions with vehicle and Androstane-3,17-diol. […]

Pregnant C57BL/6 mice [3] = test: mouse model of severe preterm birth (3 mg/kg LPS); format: in vivo; details: 3 mg/kg LPS on D15
Procedure: Provided in FIG. 7 is an experimental schematic of compound treatment in mouse models of severe preterm birth. In separate experiments, pregnant C57BL/6 mice were intraperitoneally administered 3 mg/kg LPS (Escherichia coli 0127:B8, chromatographically pure, Sigma-Aldrich) or PBS (as control) on D15. Treated mice were then treated with either intraperitoneal injections of vehicle (200 μl, 15% DMSO in pharmaceutical sesame oil) or androstane-3,17-diol (1.5 mg/mouse, 200 μl) every 12 hours, up to 5 doses before delivery.
(§2) Provided in FIGS. 8A and 8B are an experimental schematic and results of tocolytic compound treatment in mouse models of severe preterm birth. In separate experiments, pregnant C57BL/6 mice were intraperitoneally administered 3 mg/kg LPS (Escherichia coli 0127:B8, chromatographically pure, Sigma-Aldrich) or PBS (as control) on D15. Treated mice were then treated with either intraperitoneal injections of vehicle or androstane-3,17-diol (1.5 mg/mouse). The androstane-3,17-diol group received […] via intraperitoneal injections every 24 hours, up to 3 days before delivery. One-third (33%) of LPS-induced preterm mice treated with androstane-3,17-diol reached full term.

[4] = test system: human uterine smooth muscle cells; test: collagen gel contraction assay; format: cell-based
Pregnant C57BL/6 mice [5] = test: mouse model of moderate preterm birth (2 mg/kg LPS); format: in vivo; details: for gestation in vivo: 2 mg/kg LPS on D15, compounds intraperitoneal every 8 hours beginning 8 hours after LPS
Procedure: Provided in FIGS. 6A and 6B are an experimental schematic and results of compound treatment in mouse models of moderate preterm birth. Pregnant C57BL/6 mice were intraperitoneally administered 2 mg/kg LPS (Escherichia coli 0127:B8, chromatographically pure, Sigma-Aldrich) or PBS (as control) on D15. Mice were then treated with either intraperitoneal injections of vehicle (100 μl, 30% DMSO in pharmaceutical sesame oil), DHEA-S(first two doses at 0.8 mg/mouse, later doses at 0.4 mg/mouse, 100 μl), THDOC (first two doses at 0.8 mg/mouse, later doses at 0.4 mg/mouse, 100 μl), estriol-16-glucuronide (first two doses at 0.8 mg/mouse, later doses at 0.4 mg/mouse, 100 μl), androstane-3,17-diol (1.5 mg/mouse, 100 μl), Androstane-3,17-diol+progesterone (each at 0.75 mg/mouse, 100 μl), or DHEA-S+androstane-3,17-diol+progesterone (androstane-3,17-diol and progesterone each at 0.75 mg/mouse, DHEA-S at 0.27 mg/mouse for the first two doses and then 0.13 mg/mouse for the later does, 100 μl). Compound groups received the compounds via intraperitoneal injections every 8 hours, beginning 8 hours after LPS administration, up to 4 doses, and then after 12 hours before delivery.

Pregnant C57BL/6 mice [6] = test: treatment of healthy control mice (no LPS administration); format: in vivo; details: 1.5 mg/mouse intraperitoneal every 24 hours
Procedure: as §2

[7] = 2 mg/kg LPS on D15, compounds intraperitoneal

For C[C@]12CC[C@@H](O)C[C@@H]1CC[C@@H]1[C@@H]2CC[C@]2(C)[C@@H](O)CC[C@@H]12 (stereo in doubt) [androstane-3,17-diol], the “muscle contractility in myography tracings” value (from here on “muscle contractility”) ([1]; 1 μM Androstane-3,17-diol) was “rapid inhibition of the muscle contraction”, the “suppression of uterine contractility (area under the curve normalized to baseline)” value ([1]; D18 strips, 0.25 μM DHEA-S, 1 μM THDOC, 1 μM estriol-16-glucuronide, 1 μM androstane-3,17-diol) was “most significant inhibition effect” and the “effect on oxytocin-induced uterine contractility (AUC and amplitude from baseline)” value ([2]; increasing doses of oxytocin, 1 μM Androstane-3,17-diol) was “reduced; also recorded: inhibits uterine muscle contraction with oxytocin stimulation”. The “mice that reached full-term” value (Pregnant C57BL/6 mice [3]; 1.5 mg/mouse intraperitoneal every 12 hours, up to 5 doses) was 1/3, the “appearance of mom and pups” value (Pregnant C57BL/6 mice [3]; 1.5 mg/mouse intraperitoneal every 12 hours, the mouse that reached full-term) was “both mom and pups looked healthy” and the “LPS-induced preterm mice that reached full term” value (Pregnant C57BL/6 mice [3]; 1.5 mg/mouse intraperitoneal every 24 hours, up to 3 days) was 33%. For the same molecule, the “ability to mitigate collagen retraction (gel surface area relative to no cell control)” value ([4]; oxytocin 100 nM, 18 hours, 2.5 μM DHEA-S, 10 μM THDOC, 10 μM estriol-16-glucuronide, 10 μM androstane-3,17-diol, 2 mM progesterone) was “provided the best results”, the “birth outcome of preterm model females” value (Pregnant C57BL/6 mice [5]; [7]) was “Full-term live pups were birthed” and the “comparison of gestation results between treatment groups” value (Pregnant C57BL/6 mice [5]; [7]) was “most significant results”. The gestation in vivo (Pregnant C57BL/6 mice [5]) was “prolonged gestation in vivo” and the gestation period (Pregnant C57BL/6 mice [6]) was “increased gestation period beyond the typical date of delivery”.

C[C@]12CC[C@H](OS(=O)(=O)O)CC1=CC[C@@H]1[C@@H]2CC[C@]2(C)C(=O)CC[C@@H]12 [DHEA-S, dehydroisoandrosterone sulfate] was tested, and the “birth outcome of preterm model females” value (Pregnant C57BL/6 mice [5]; [7]) was “Full-term live pups were birthed” and the gestation in vivo (Pregnant C57BL/6 mice [5]) was “prolonged gestation in vivo”.

With CC[C@H](C)[C@@H]1NC(=O)[C@H](Cc2ccc(O)cc2)NC(=O)[C@@H](N)CSSC[C@@H](C(=O)N2CCC[C@H]2C(=O)N[C@@H](CC(C)C)C(=O)NCC(N)=O)NC(=O)[C@H](CC(N)=O)NC(=O)[C@H](CCC(N)=O)NC1=O [Oxytocin, oxytocin, reference compound] the “uterine contractility (AUC, amplitude)” value ([2]; oxytocin 1 to 1000 nM, vehicle) was “induced a dose-dependent increase in uterine contractility”.

For C[C@]12CC[C@@H](O)C[C@H]1CC[C@@H]1[C@@H]2CC[C@]2(C)[C@@H](C(=O)CO)CC[C@@H]12 [THDOC, tetrahydrodeoxycorticosterone], the gestation in vivo (Pregnant C57BL/6 mice [5]) was “prolonged gestation in vivo”.

For CC(=O)[C@H]1CC[C@H]2[C@@H]3CCC4=CC(=O)CC[C@]4(C)[C@H]3CC[C@]12C [progesterone, reference compound], the “muscle contractility” value ([1]; 1 μM progesterone) was “no effects”, the “muscle contractility” value ([1]; 10 μM progesterone) was “first enhanced and then gradually suppressed in peak height” and the “effect on uterine muscle contraction with oxytocin stimulation” value ([2]; increasing doses of oxytocin, 10 μM progesterone, n=3) was “but progesterone inhibits uterine muscle contraction”. The “ability to mitigate collagen retraction” value ([4]; progesterone at the same concentration as androstane-3,17-diol (10 μM)) was “no effect”.
